Assay results as given in paper PMC11798738, “Targeting ASK1 by CS17919 alleviates kidney‐ and liver‐related diseases in murine models” (Animal Models and Experimental Medicine, 2024).
Marks after values point to notes of the source that are not given here.

How the values were obtained:
MRC‐5 = assay: MTS cytotoxicity assay, MRC-5; type: cell-based, human; conditions: 72 h
Protocol: (§1) Human embryonic kidney cells (HEK‐293A), human hepatocellular carcinoma cells (HUH7), human embryonic liver diploid cells (CCC‐HEL‐1) and human embryonic lung cells (MRC‐5) were selected for the cytotoxicity study of both drugs, using the MTS assay protocol. Cells were cultured at 37°C with 5% CO2 using an appropriate medium. […] After 72 h of incubation, 30 μL of MTS solution was added to each well, and the cells were then incubated for 2–4 h in the dark. The absorbance value of each well at 490 nm was measured using an enzymatic plate reader and the IC50 for each drug and each cell line was calculated. Cell viability and cytoxicity experiments were repeated three times.

L02 cells = assay: Effects of the drugs on L02 cells (Figure S1C); type: cell-based, human; conditions: 0.3–10 μmol/L
Protocol: FIGURE S1 (A) Chemical structural formulae of CS17919 and GS-4997. (B) Viability of L02 cells 72 h after 25–800 μmol/L (2-fold dilution) PA stimulation. (C) The effects of CS17919 and GS-4997 at different doses (0.3–10 μmol/L) on L02 cells. (D) Kidney weights in the UUO model. (E) Renal coefficients in the DKD model. (F) Urine ALB in the DKD model. (G) Liver weights in the NASH model. *: PA vs. Blank; GS-4997 vs. DMSO; Treatment vs. Model. #: CS17919 vs. DMSO; Control vs. Model. * p < 0.05, ## p < 0.01, *** p < 0.001, #### and **** p < 0.0001 were obtained by one-way ANOVA.

human ASK1 kinase = human ASK1 kinase (Homo sapiens, UniProt Q99683); assay: ASK1 kinase inhibition, HTRF assay; conditions: read-out: IC50, inhibition of ASK1, full-length recombinant human ASK1
Text: Enzymatic activity analysis was repeated three times. IC50 results were obtained using Prism 8.0 (GraphPad Prism Software).

NASH mouse model = assay: CCL4- and HFD-induced NASH mouse model; type: in vivo, C57BL/6J mice; conditions: CS17919 20 mg/kg
Protocol: 41 C57BL/6J mice, male, 6–8 weeks of age, were purchased from Chengdu Dossy Experimental Animal Co. (Chengdu, China), 9 of which were assigned in the control group and fed a chow diet. The other 32 mice were fed a HFD (D12429, Research diet, USA). After 8 weeks of feeding, these mice with HFD were subcutaneously injected with CCL4 (0.1 mL/kg) twice a week. These mice were then randomly subdivided into 4 groups according to serum ALT and AST at week 12: Model (n = 8), CS17919 (n = 8), CS27109 (n = 8), and Combination (n = 8). Both the control and model groups were given the solvent mentioned above, administered orally twice a day, while CS17919 was administered twice a day by gavage at a dose of 20 mg/kg and CS27109 was administered twice a day by gavage at a dose of 10 mg/kg for 4 weeks. The body weight of each mouse was measured every 3 days during the drug intervention. All animals were fasted overnight after the last drug administration and blood was collected to isolate serum for biochemical tests including AST, ALT, TG, TC, HDL‐c, and LDL‐c. The liver of each mouse was removed, the right lobe of which was fixed in 10% formalin solution for pathological study.
H&E staining was applied to determine scores for liver steatosis, ballooning and inflammation in the NASH model. Thin 4 μm paraffin sections of each sample were used to assess liver histology, following a standard protocol. Paraffin sections were deparaffinized and placed in Hematoxylin staining solution for 3–8 min before using tap water to elute excess Hematoxylin. Sections were stained in Eosin stain for about 1–3 min and rinsed with tap water. Finally, the slices were dehydrated and sealed. Score ranges were 0–3 for liver steatosis, 0–2 for ballooning and 0–12 for inflammation (which included scores of 0–3 for portal inflammation, 0–3 for lobular inflammation, 0–3 for piecemeal necrosis, and 0–3 for bridging necrosis).
Sirius Red staining was applied to determine liver fibrosis in the NASH model. Thin 4 μm paraffin sections of each sample were used in this study followed the standard procedure. Sections were first stained with Hematoxylin for 5–10 min, then washed and stained with Sirius Red stain about 15–30 min. Finally, the sections were rinsed and sealed. Image‐Pro Plus 6.0 was used for analyzing the area of liver fibrosis and the percentage of the fibrosis area in each section was calculated.

HEK‐293A = assay: MTS cytotoxicity assay, HEK-293A; type: cell-based, human; conditions: 72 h
Protocol: Human embryonic kidney cells (HEK‐293A), human hepatocellular carcinoma cells (HUH7), human embryonic liver diploid cells (CCC‐HEL‐1) and human embryonic lung cells (MRC‐5) were selected for the cytotoxicity study of both drugs, using the MTS assay protocol. Cells were cultured at 37°C with 5% CO2 using an appropriate medium. For the assay, the cells were evenly distributed at 1E4 cells/well in 96‐well plates, and then CS17919 or GS‐4997 was added to the plates in a dose‐dependent manner (3‐fold dilution from 100 μmol/L). After 72 h of incubation, 30 μL of MTS solution was added to each well, and the cells were then incubated for 2–4 h in the dark. The absorbance value of each well at 490 nm was measured using an enzymatic plate reader and the IC50 for each drug and each cell line was calculated. Cell viability and cytoxicity experiments were repeated three times.

CCC‐HEL‐1 = assay: MTS cytotoxicity assay, CCC-HEL-1; type: cell-based, human; conditions: 72 h
Protocol: as §1

CYP 2C8 = CYP 2C8 (Homo sapiens, UniProt P10632); assay: CYP inhibition in vitro; type: in vitro ADME
[1] = Pharmacokinetic study in mice, oral; type: in vivo, C57BL/6J mice; conditions: mouse plasma, mean ± SD, n = 3
Protocol: Male C57BL/6J mice (Beijing Huafukang Biotechnology Co., Ltd, Beijing, China) were selected at 6–8 weeks for the experiment. […] About 50–60 μL of blood and tissue were isolated in anticoagulation tubes at 15, 30 min, 1, 2, 4, 6, and 8 h after administration, respectively, and then centrifuged at 5000 r/min for 7 min at 4°C. […] The standard solution was prepared with 7 concentrations and QC with 3. The standard and QC working solutions were added to the 96‐well plate, and the protein was precipitated by adding acetonitrile solution containing the internal standard together with the sample to be tested. After shaking for 10 min and centrifugation at 12 000 × g for 10 min, the supernatants from the 96‐well plate were analyzed by LC–MS (mobile phase: 0.1% formic acid‐water 0.1% formic acid‐acetonitrile). Raw data were imported into Phoenix WinNonlin to calculate AUC, C max, T 1/2, etc.

HUH7 = assay: MTS cytotoxicity assay, HUH7; type: cell-based, human; conditions: 72 h
Protocol: as §1

CYP3A4 = CYP3A4 (Homo sapiens, UniProt P08684); assay: CYP inhibition in vitro; conditions: read-out: CYP3A4 (Midazolam) inhibition IC50; substrate Midazolam
[2] = Metabolic stability in liver microsomes; type: in vitro ADME; conditions: Human
[3] = 4 weeks, CS27109 10 mg/kg twice a day
[4] = serum after 4 weeks, CS27109 10 mg/kg, gavage twice a day, mean ± SD

Sequence of CYP3A4 (P08684 whole entry): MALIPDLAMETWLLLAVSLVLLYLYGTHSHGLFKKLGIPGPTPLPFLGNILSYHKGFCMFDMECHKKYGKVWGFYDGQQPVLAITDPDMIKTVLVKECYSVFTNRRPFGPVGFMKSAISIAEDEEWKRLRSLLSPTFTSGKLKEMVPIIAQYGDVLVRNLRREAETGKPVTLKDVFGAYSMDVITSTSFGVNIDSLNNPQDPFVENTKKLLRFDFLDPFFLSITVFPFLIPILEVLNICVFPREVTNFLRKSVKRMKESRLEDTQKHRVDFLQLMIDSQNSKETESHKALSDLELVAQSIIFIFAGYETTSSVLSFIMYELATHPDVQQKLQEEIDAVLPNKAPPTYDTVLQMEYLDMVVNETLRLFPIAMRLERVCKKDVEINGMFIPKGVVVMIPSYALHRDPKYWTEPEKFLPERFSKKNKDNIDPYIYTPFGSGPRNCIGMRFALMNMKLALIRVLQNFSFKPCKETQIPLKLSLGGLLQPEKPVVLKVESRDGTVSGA
Sequence of human ASK1 kinase (Q99683 whole entry): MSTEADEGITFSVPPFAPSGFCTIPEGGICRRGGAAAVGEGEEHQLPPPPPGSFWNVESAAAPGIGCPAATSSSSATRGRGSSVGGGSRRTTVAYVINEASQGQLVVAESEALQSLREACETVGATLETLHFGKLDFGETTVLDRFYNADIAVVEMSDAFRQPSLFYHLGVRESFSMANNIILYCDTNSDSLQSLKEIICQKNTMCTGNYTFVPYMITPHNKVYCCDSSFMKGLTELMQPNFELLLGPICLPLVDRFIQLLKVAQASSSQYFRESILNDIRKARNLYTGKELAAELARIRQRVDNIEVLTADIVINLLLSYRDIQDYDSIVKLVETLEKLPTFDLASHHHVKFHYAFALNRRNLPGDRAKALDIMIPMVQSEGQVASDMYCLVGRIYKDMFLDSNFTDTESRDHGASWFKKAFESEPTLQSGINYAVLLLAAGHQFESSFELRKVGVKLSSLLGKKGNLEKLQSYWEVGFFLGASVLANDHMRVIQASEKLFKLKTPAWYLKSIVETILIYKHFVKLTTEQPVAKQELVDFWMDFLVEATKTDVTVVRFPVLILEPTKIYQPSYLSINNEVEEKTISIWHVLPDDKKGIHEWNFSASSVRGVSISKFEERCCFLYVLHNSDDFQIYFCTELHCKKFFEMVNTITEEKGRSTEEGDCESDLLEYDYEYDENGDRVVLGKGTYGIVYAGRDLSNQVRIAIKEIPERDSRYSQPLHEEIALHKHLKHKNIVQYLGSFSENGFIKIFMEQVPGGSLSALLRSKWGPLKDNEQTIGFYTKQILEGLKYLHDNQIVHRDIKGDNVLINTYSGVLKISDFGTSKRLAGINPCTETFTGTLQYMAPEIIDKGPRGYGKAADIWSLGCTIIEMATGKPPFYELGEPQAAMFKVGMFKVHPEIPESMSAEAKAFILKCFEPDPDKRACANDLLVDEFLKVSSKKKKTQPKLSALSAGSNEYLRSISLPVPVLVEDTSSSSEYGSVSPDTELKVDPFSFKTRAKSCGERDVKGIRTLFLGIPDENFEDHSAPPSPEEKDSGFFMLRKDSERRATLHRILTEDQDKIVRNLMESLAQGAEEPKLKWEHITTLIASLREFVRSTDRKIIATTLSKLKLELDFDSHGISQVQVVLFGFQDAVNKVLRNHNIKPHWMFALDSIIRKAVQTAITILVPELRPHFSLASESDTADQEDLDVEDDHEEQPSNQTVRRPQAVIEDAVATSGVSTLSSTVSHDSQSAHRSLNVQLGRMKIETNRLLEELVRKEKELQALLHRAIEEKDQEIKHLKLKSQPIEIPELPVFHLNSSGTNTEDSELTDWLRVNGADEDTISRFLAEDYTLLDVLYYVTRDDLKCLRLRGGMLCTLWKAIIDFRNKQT
Sequence of CYP 2C8 (P10632 whole entry): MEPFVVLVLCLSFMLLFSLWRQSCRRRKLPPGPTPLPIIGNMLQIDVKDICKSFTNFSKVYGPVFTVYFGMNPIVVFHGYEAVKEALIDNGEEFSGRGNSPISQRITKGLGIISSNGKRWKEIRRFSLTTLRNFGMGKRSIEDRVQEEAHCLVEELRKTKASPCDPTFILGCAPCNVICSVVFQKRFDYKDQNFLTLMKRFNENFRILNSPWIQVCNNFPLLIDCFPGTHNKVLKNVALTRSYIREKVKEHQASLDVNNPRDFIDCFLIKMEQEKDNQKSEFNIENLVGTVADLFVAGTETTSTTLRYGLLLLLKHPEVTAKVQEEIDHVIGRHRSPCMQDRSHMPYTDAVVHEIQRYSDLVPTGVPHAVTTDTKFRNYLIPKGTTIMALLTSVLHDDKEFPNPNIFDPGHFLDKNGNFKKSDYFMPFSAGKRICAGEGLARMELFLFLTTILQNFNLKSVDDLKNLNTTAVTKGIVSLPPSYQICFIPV

Cc1cc(F)c(C(=O)Nc2cccc(-c3nncn3[C@H](C)C(F)(F)F)n2)cc1NC(=O)C1CC1 [CS17919]
Cytotoxicity (cell viability) (MRC‐5): barely affected cell viability | Safety in L02 cells (L02 cells): safer than GS‐4997 | IC50 (human ASK1 kinase): 22.5 nM | Liver fibrosis area (Sirius Red staining) (NASH mouse model; [3]): significantly reduced | Liver inflammation score (H&E) (NASH mouse model; [3]): tended to improve | Liver steatosis and ballooning scores (H&E) (NASH mouse model; [3]): barely improved | ALT (NASH mouse model; [4]): 120.9 ± 80.3^a U/L | AST (NASH mouse model; [4]): 193.3 ± 110.1 U/L | HDL‐C (NASH mouse model; [4]): 0.604 ± 0.231 mmol/L | LDL‐C (NASH mouse model; [4]): 0.054 ± 0.028^a mmol/L | TC (NASH mouse model; [4]): 0.719 ± 0.251 mmol/L | TG (NASH mouse model; [4]): 0.223 ± 0.106 mmol/L | Cytotoxicity (cell viability) (HEK‐293A): barely affected cell viability | Cytotoxicity (cell viability) (CCC‐HEL‐1): barely affected cell viability | IC50 (CYP 2C8): > 10 µM | Cmax ([1]; 20 mg/kg p.o.): 4039 ± 646.90 ng/mL | MRT0–∞ ([1]; 20 mg/kg p.o.): 3.96 ± 0.91 h | T 1/2 ([1]; 20 mg/kg p.o.): 2.20 ± 0.74 h | T max ([1]; 20 mg/kg p.o.): 1.50 ± 0.87 h | Cmax ([1]; 50 mg/kg p.o.): 5741 ± 1835 ng/mL | MRT0–∞ ([1]; 50 mg/kg p.o.): 6.43 ± 1.44 h | T 1/2 ([1]; 50 mg/kg p.o.): 3.50 ± 1.86 h | T max ([1]; 50 mg/kg p.o.): 2.00 ± 0 h | Cytotoxicity (cell viability) (HUH7): barely affected cell viability | IC50 (CYP3A4): 3.02 µM | T1/2 in liver microsomes [2]: >145 min
